Values after ≈ are worked out from the molar mass of the structure shown. Active and inactive are the calls of the source.

This is an account of results in ChEMBL document CHEMBL3817752, “Antimycobacterial activity of new N(1)-[1-[1-aryl-3-[4-(1H-imidazol-1-yl)phenyl]-3-oxo]propyl]-pyridine-2-carboxamidrazone derivatives” (Bioorg Med Chem Lett, 2016).

One data set relates to Mycobacterium avium. Put plainly: Antimycobacterial activity against Mycobacterium avium NCTC 08559 after 7 days by resazurin microtiter assay. It is filed as functional. To be noted: NCTC 08559, 168 h. For orientation: The colour change of resazurin is a common sign of viable cells or microbes.
Data set [1] has as its system Candida albicans. In words: Antimicrobial activity against Candida albicans 685 clinical isolate at 20 ug per disk after 18 to 24 hrs by agar diffusion assay. The class given is functional. To be noted: read-out: DIZ.
A further data set relates to Mycobacterium gordonae. In words: Antimycobacterial activity against Mycobacterium gordonae NCTC 10267 after 7 days by resazurin microtiter assay. As to conditions: NCTC 10267, 168 h. It is filed as functional.
Data set [2] in a line: Selectivity index, ratio of CC50 for African green monkey Vero cells to MIC for Mycobacterium tuberculosis H37Ra […]. The class given is toxicity, cell-based. To be noted: read-out: Selectivity Index.
Data set [3] deals with Mycobacterium intracellulare. Put plainly: Antimycobacterial activity against Mycobacterium intracellulare NCTC 10425 after 7 days by resazurin microtiter assay. The class given is functional. As to conditions: NCTC 10425, 168 h.
A further data set relates to Escherichia coli. In words: Antimicrobial activity against Escherichia coli ATCC 25922 at 20 ug per disk after 18 to 24 hrs by agar diffusion assay. It is filed as functional. To be noted: read-out: DIZ. (In general: A growth-free zone around the sample is the usual read-out of agar diffusion tests.)
For another data set, the system named is Mycobacterium kansasii. In words: Antimycobacterial activity against Mycobacterium kansasii NCTC 10268 after 7 days by resazurin microtiter assay. It is filed as functional. As to conditions: NCTC 10268, 168 h.
Data set [4] addresses T1, Sterol 14alpha-demethylase (Mycobacterium tuberculosis) (UniProt P9WPP9).
T1 sequence (whole entry): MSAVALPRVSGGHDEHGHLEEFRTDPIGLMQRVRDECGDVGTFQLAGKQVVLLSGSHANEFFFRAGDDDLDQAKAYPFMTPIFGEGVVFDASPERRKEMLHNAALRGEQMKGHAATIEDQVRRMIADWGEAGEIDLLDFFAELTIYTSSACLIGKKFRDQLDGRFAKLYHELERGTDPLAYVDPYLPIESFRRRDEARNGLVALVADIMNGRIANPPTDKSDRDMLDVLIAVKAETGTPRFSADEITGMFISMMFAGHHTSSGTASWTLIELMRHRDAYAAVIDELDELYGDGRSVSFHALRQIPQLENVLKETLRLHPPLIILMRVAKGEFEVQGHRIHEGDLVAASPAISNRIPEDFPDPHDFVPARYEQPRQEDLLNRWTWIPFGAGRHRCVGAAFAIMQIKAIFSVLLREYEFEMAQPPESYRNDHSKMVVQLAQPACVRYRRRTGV
Put plainly: Binding affinity to N-terminal His-tagged Mycobacterium tuberculosis H37Rv ATCC 25618 CYP51 expressed in Escherichia coli Rosetta (DE3) by spectrophotometric analysis.

The test system of a further data set is Mycobacterium marinum. Put plainly: Antimycobacterial activity against Mycobacterium marinum CIP 6423 after 7 days by resazurin microtiter assay. The class given is functional. As to conditions: CIP 6423, 168 h.
The subject of data set [5] is Mycobacterium tuberculosis. In words: Antimycobacterial activity against Mycobacterium tuberculosis H37Ra […] after 7 days by resazurin microtiter assay. The class given is functional. As to conditions: 168 h.
The subject of data set [6] is Mycobacterium scrofulaceum. In words: Antimycobacterial activity against Mycobacterium scrofulaceum NCTC 10803 after 7 days by resazurin microtiter assay. It is filed as functional. As to conditions: 168 h.
A further data set has as its system Staphylococcus aureus. Put plainly: Antimicrobial activity against Staphylococcus aureus ATCC 25923 at 20 ug per disk after 18 to 24 hrs by agar diffusion assay. It is filed as functional. As to conditions: read-out: DIZ.
Data set [7] is described as follows: Cytotoxicity against African green monkey Vero cells after 72 hrs by MTT assay. It is filed as cell-based. As to conditions: chlorocebus sabaeus. A general note: Formazan colour is commonly taken as a measure of viable cells.
The subject of data set [8] is Candida albicans. Put plainly: Antimicrobial activity against Candida albicans 685 clinical isolate at 5 ug per disk after 18 to 24 hrs by agar diffusion assay. To be noted: read-out: DIZ. The class given is functional.

Take `N/C(=N/NC(CC(=O)c1ccc(-n2ccnc2)cc1)c1ccc(Br)cc1)c1ccccn1` (centres undefined): the MIC (usually the smallest concentration in the dilution series that meets the test's criterion for growth inhibition) came to 131 µM (≈ 64.1 µg/mL) in the data set on Mycobacterium avium; 2 µM (≈ 0.979 µg/mL) against Mycobacterium gordonae; 131 µM (≈ 64.1 µg/mL) in [3]; 4.1 µM (≈ 2.01 µg/mL) against Mycobacterium kansasii; 8.2 µM (≈ 4.01 µg/mL) with Mycobacterium marinum; 16.3 µM (≈ 7.98 µg/mL) in [5]. Also, in data set [6], the MIC amounted to 16.3 µM (≈ 7.98 µg/mL). In addition, the zone of inhibition at 20 µg/disc in the data set on Candida albicans [1] was 8 mm; in the data set on Escherichia coli, 6 mm; in the data set with Staphylococcus aureus, 20 mm. The selectivity ratio in [2] is 18. Also, the outcome in data set [4] was inactive. Half-maximal cytotoxicity in data set [7] (CC50 at 72 h) was put at 298 µM.
Take `C[C@@H]1[C@H](O)[C@@H](C)/C=C/C=C/C=C/C=C/C=C/C=C/C=C/[C@H](O[C@@H]2O[C@H](C)[C@@H](O)[C@H](N)[C@@H]2O)C[C@@H]2O[C@](O)(C[C@@H](O)C[C@@H](O)[C@H](O)CC[C@@H](O)C[C@@H](O)CC(=O)O[C@H]1C)C[C@H](O)[C@H]2C(=O)O` [AMPHOTERICIN B]: the zone of inhibition at 5 µg/disc with Candida albicans [8] amounted to 16 mm.
